# In patent US20060069151A1, “Novel use of lycopene” (priority 2002, published 2006):
# Test system: androgen signalling
# Experiment: androgen target gene expression in androgen sensitive target organ tissue
# Format: in vivo
# Conditions: after administration; no method, species or dose described
smiles,measurement,value
CC(C)=CCC/C(C)=C/C=C/C(C)=C/C=C/C(C)=C/C=C/C=C(C)/C=C/C=C(C)/C=C/C=C(\C)CCC=C(C)C [lycopene],"androgen target gene expression in androgen sensitive target organ tissue, as the endpoint and result of androgen signalling",significantly reduced
